“Also recorded” adds a separate entry of the source.
Key:
[1] = system: TGFβ-induced luciferase activity; experiment: Spectrum collection small molecule screen with TGFβ-dependent SBE-luciferase HEK293FT reporter cell line; format: cell-based, human; details: HEK293FT-luc reporter line
Excerpt: The minimal thymidine kinase promoter was amplified by PCR with the following forward and reverse primers, of which the forward primer contained four tandem Smad binding elements (SBE):
Restriction sites in the primers are underlined. The resultant PCR product was TOPO cloned (Invitrogen) and the correct insert was verified by DNA sequencing. The construct was digested with SacI-HindIII and the SBEx4-TK insert was purified and ligated with the pGL4.15 vector (Promega). Clones were verified by restriction digest and then tested for TGFβ responsiveness in transient transfections of 293FT cells. […] Clones were selected by treatment with 200 μg/ml hygromycin. 20 clones were selected and screened for TGFβ-induced luciferase activity. One clone that was robustly responsive was subsequently used in the small molecule screen.
Excessive scarring results from the formation of too many myofibroblasts and the production of too much extracellular matrix material such as collagen. Since TGFβ drives the formation of myofibroblasts in part through activating the Smad pathway, a reporter construct was designed to serve as a measure of TGFβ-induced Smad activity (FIG. 1A). Four tandem Smad binding elements (SBE) were inserted upstream of the minimal thymidine kinase promoter. The SBEx4-TK promoter was inserted into the pGL4.15 vector which contains a destabilized firefly luciferase gene and the hygromycin resistance gene. The pSBEx4-TK-luc-Hygro plasmid was then introduced into HEK293FT cells by lipofection. Stable clones were generated and screened for TGFβ induced luciferase activity. One clone was selected that consistently gave a 15 to 20-fold induction of luciferase activity when cells were treated with TGFβ for 24 hours (FIG. 1B).
To find compounds that inhibit TGFβ activity and thus may be novel anti-scarring compounds, the Spectrum collection of 2,300 small molecules was screened with the cell line. […] Salinomycin, an antibiotic produced from Streptomyces albus is used as coccidiostat agent in animal feed (Knirschova et al., “Multiple regulatory genes in the salinomycin biosynthetic gene cluster of Streptomyces albus CCM 4719,” Folia Microbiologica 52:359-365 (2007), which is hereby incorporated by reference in its entirety). […] Thus, further investigation was made to assess the use of salinomycin as an anti-scarring agent.

[2] = system: phospho-p38; experiment: Western blot of phospho-p38 in TGFβ-treated human orbital fibroblasts; format: cell-based; details: for reduction of phospho-p38 levels: 250 nM
Description: Therefore, activity of another signaling molecule that is involved in myofibroblast formation, namely the mitogen-activated protein kinase (MAPK), p38, was measured to assess its potential role in the observed results. P38 MAPKs are a class of protein kinases that respond to TGFβ, ultraviolet radiation and other stimuli. Phosphorylation and activation of p38 can lead to numerous downstream signaling pathways, including phosphorylation of Smad proteins.
To further test if salinomycin targets the p38 pathway to block myofibroblast formation, a plasmid encoding a mutant MKK6 (pcDNA3-flag MKK6(glu)) protein was used. MKK6 phosphorylates and thus activates p38 in response to extracellular signals such as TGFβ or other environmental stresses. The MKK6(glu) protein, which harbors glutamate mutations at amino acid residues serine 207 and threonine 211, is constitutively active and thus phosphorylates p38 irrespective of signal (Raingeaud et al., “MKK3- and MKK6-regulated gene expression is mediated by the p38 mitogen-activated protein kinase signal transduction pathway,” Mol. Cell. Biol. 16:1247-1255 (1996), which is hereby incorporated by reference in its entirety). Thus, if salinomycin is blocking the p38 signaling pathway, MKK6(glu) should overcome the effect of salinomycin. MKK6(glu) was first tested using the SBE4-TK-luc reporter plasmid. The luciferase reporter plasmid was introduced into human fibroblasts along with the MKK6(glu) plasmid or a control plasmid (pcDNA3-GFP). Cells were then treated with vehicle, TGFβ or TGFβ plus 250 nM salinomycin. After 24 hours, luciferase activity was measured (FIG. 6A). […] MKK6(glu) was further tested to assess whether it could attenuate the ability of salinomycin to inhibit p38 phosphorylation. Control or MKK6(glu) plasmids were introduced into human fibroblasts by electroporation and then cells were treated with TGFβ for 24 hours. Following treatment, cells were analyzed for flag-MKK6(glu) expression and phospho-p38 by Western blot (FIG. 6B). […] However, MKK6(glu) expression leads to a large induction of phospho-p38, regardless of salinomycin treatment. As a third test, control or MKK6(glu) plasmids were introduced into human fibroblasts by electroporation. After electroporation, cells were induced to form myofibroblasts by TGFβ treatment for 72 hours. Samples were analyzed for expression of flag-MKK6(glu), αSMA, calponin and β-tubulin by Western blot (FIG. 6C).

[3] = system: capsular fibroblasts; experiment: Breast implant capsular fibroblasts treated with TGF-β and salinomycin (Western blot, slot blot, morphology); format: cell-based, human; details: for Thy1 expression: 250 nM, untreated and TGF-β (2.5 ng/mL) treated cultures
Description: FIG. 9 is a set of images of capsular fibroblasts explanted from primary tissue samples cultured in vitro. Treatment consisted of 48 hours growth in serum-starved media (0.1% fetal bovine serum), followed by administration of vehicle, 2.5 ng/mL transforming growth factor-beta (TGF-β), 250 nM salinomycin (SNC), or TGF-β plus SNC for 72 hours. […] Original magnification 200×.
After treatment, cells were lysed for protein extraction and analysis via Western blot. Data are presented in graph form (FIG. 10A) and as images of Western blots (FIG. 10B). […] All protein expression is relative to β-tubulin levels. At time of cell harvest, media supernatant was also taken and equal volumes run on a slot blot to compare presence of extracellular soluble collagen. In like manner, collagen I increased with TGF- and was reduced with co-administration of SNC. **=p<0.01; ***=p<0.001; ****=p<0.0001.
Peri-implant tissue samples from irradiated (n=4) and non-irradiated (n=9) breast capsules were analyzed for expression of Thy1 mRNA by qRT-PCR (FIG. 8). Additionally, capsular fibroblasts were grown in vitro and treated with the pro-fibrotic cytokine transforming growth factor-β (TGFβ) and the polyether ionophore salinomycin, and analyzed for expression of Thy1, αSMA, fibronectin, and collagen by Western blot (FIG. 9 and FIGS. 10A-B). To investigate the fundamental role of Thy1 in capsular fibroblast/myofibroblast formation, Thy1 expression was depleted using Thy1 siRNA (delivered by lentiviral transduction) (FIGS. 11A-B).

[4] = 250 nM plus TGF-β 2.5 ng/mL, 72 hours

CC[C@@H](C(=O)[C@@H](C)[C@@H](O)[C@H](C)[C@@H]1O[C@@H]([C@@H](CC)C(=O)O)CC[C@@H]1C)[C@H]1O[C@]2(C=C[C@@H](O)[C@]3(CC[C@@](C)([C@H]4CC[C@](O)(CC)[C@H](C)O4)O3)O2)[C@H](C)C[C@@H]1C [salinomycin]
inhibition of TGFβ-induced luciferase activity, initial screen [1]: blocked TGFβ-induced luciferase activity; also recorded: particularly potent at inhibiting luciferase activity | reduction of phospho-p38 levels ([2]; 5 hours): more than 2 fold | reduction of phospho-p38 levels ([2]; 24 hours): 10 fold | phospho-p38 levels ([2]; 5 hours TGFβ treatment): completely blocked | inhibition of phospho-p38 ([2]; 24 hours TGFβ treatment): 80% | phosphorylation of p38 ([2]; control plasmid, TGFβ 24 hours): blocks phosphorylation of p38 | Alpha-SMA expression [3, 4]: below basal levels | cell morphology (myofibroblastic differentiation) [3, 4]: appears to reduce the effect of TGF-β | Thy1 expression ([3]; 72 hours): dramatically reduced | Thy1 expression ([3]; 72 hours, listed as SNC): significantly reduced | TGFβ-increased αSMA and collagen I ([3]; explanted capsular fibroblasts, TGFβ plus salinomycin): nearly completely inhibited; also recorded: reduced
